The values below come from article PMC4059234, “Edc3 Function in Yeast and Mammals Is Modulated by Interaction with NAD-Related Compounds” (G3: Genes|Genomes|Genetics, 2014).

The structures appear in SMILES notation.

Experiment [1] concerns the target T1, hEdc3 (Homo sapiens, UniProt Q96F86).
T1 construct: gene EDC3; full-length hEdc3
T1 sequence (Q96F86 1-508): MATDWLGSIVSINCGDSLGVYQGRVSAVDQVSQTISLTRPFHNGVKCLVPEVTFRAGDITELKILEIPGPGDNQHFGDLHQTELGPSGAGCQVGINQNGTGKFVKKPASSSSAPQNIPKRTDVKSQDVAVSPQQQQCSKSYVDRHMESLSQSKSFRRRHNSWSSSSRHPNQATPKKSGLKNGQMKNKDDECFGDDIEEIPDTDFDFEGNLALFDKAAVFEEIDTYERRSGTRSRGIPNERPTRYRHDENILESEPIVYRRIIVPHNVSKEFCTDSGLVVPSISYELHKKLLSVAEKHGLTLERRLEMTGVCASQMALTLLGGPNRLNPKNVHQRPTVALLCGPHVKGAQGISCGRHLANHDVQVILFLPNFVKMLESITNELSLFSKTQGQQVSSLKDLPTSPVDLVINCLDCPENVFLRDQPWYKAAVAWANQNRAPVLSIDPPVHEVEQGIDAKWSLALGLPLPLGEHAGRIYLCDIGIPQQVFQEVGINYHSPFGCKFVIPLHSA
As to the kind of experiment: isothermal titration calorimetry ([…]°, pH […]). In kind it is binding. On the technique in general: In ITC the heat of successive injections is recorded.

Experiment [2] deals with T2, yEdc3 (Saccharomyces cerevisiae, UniProt P39998).
T2 construct: gene EDC3; full-length recombinant yeast Edc3
T2 sequence (P39998 1-551): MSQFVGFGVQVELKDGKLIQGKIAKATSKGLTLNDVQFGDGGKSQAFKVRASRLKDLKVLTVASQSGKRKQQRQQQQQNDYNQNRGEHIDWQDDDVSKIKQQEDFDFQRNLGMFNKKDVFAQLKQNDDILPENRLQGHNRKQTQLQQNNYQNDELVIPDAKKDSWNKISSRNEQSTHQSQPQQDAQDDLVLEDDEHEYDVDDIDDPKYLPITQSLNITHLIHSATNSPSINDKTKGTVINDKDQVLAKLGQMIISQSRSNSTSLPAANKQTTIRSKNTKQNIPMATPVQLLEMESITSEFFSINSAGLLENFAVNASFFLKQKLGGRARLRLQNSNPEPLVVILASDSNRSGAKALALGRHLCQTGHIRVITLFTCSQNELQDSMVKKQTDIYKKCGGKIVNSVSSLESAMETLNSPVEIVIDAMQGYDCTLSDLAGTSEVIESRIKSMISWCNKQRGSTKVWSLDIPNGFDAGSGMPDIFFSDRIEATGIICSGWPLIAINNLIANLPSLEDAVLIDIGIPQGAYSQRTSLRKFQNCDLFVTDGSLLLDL
As to the kind of experiment: thin-layer chromatography of […]-NAD incubated with recombinant protein. In kind it is biochemical.

For orientation: Kd means the free concentration of one partner at which half of the binding sites on the other are occupied at equilibrium, for simple one-to-one binding. High values mean a looser complex, low ones a tighter complex. Regarding `NC(=O)C1=CN([C@@H]2O[C@H](COP(=O)(O)OP(=O)(O)OC[C@H]3O[C@@H](n4cnc5c(N)ncnc54)[C@H](O)[C@@H]3O)[C@@H](O)[C@H]2O)C=CC1` [NADH], in experiment [1], binding was characterised by a dissociation constant (Kd) of 163 ± 27.4 µM.
As to `NC(=O)c1ccc[n+]([C@@H]2O[C@H](COP(=O)([O-])OP(=O)(O)OC[C@H]3O[C@@H](n4cnc5c(N)ncnc54)[C@H](O)[C@@H]3O)[C@@H](O)[C@H]2O)c1` [NAD], the “thin-layer chromatography of 32P-NAD incubated with recombinant protein” value in experiment [2] is listed as “Incubation of yeast WT Edc3 with radiolabeled NAD gave rise to two slower migrating species”.
